The test concerns NCI-H1876 tumor spheroid viability. As to the kind of experiment: Anticancer human tumor NCI-H1876 cell line growth inhibition.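 As to all read-outs here: spheroids exposed to compounds for seven days before the viability read.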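 As to viability, T/C: percent of DMSO vehicle control viability so 100% = vehicle.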 As to conditions: spheroids with HUVEC and MSC; for viability, T/C: stronger effect = lower value. In a few lines: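 Complex tumor spheroids combined malignant cells with endothelial cells and mesenchymal stem cells. DNA-damaging drugs and DNA repair inhibitors were tested alone and in combination, at half-log dilutions down from clinical Cmax (top 10 microM if Cmax unknown), 0.25% DMSO final.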

Where “and” joins values, the source holds several entries; their conditions need not be identical. Equal entries are not always repeated.

Broadly, the IC50 is the concentration needed to halve the response being measured. Broadly, the viability, T/C is the ratio of treated to control. As to `COc1ccc([C@@H](O)c2cc(-c3ncnc4cc(N5CCOCC5)ccc34)c(F)cc2Cl)nn1` + COc1cc2c(cc1O)CCNC21CSC2c3c(OC(C)=O)c(C)c4c(c3C(COC1=O)N1C(O)C3Cc5cc(C)c(OC)c(O)c5C(C21)N3C)OCO4, the IC50 was 2540 nM (curve of first compound, second compound 30 pM); 778 nM (curve of first compound, second compound 94.9 pM); less than 31.6 nM (curve of first compound, second compound 0.0003 µM); less than 31.6 nM (curve of first compound, second compound 0.000949 µM); less than 31.6 nM (curve of first compound, second compound 0.003 µM). Also, the viability, T/C is, setting by setting: (second compound 30 pM, first compound 0.0316 µM) 104%; (second compound 30 pM, first compound 0.1 µM) 102%; (second compound 30 pM, first compound 0.316 µM) 99.5%; (second compound 30 pM, first compound 1 µM) 92%; (second compound 30 pM, first compound 3.16 µM) 40.2%; (second compound 30 pM, first compound 10 µM) 8.98%. For the same molecule, the viability, T/C runs as follows: (second compound 94.9 pM, first compound 0.0316 µM) 93%; (second compound 94.9 pM, first compound 0.1 µM) 87.6%; (second compound 94.9 pM, first compound 0.316 µM) 78%; (second compound 94.9 pM, first compound 1 µM) 41.5%; (second compound 94.9 pM, first compound 3.16 µM) 16.1%; (second compound 94.9 pM, first compound 10 µM) 5.87%. The viability, T/C runs as follows: (second compound 0.0003 µM, first compound 0.0316 µM) 20.7%; (second compound 0.0003 µM, first compound 0.1 µM) 20.1%; (second compound 0.0003 µM, first compound 0.316 µM) 15.1%; (second compound 0.0003 µM, first compound 1 µM) 7.3%; (second compound 0.0003 µM, first compound 3.16 µM) 2.15%; (second compound 0.0003 µM, first compound 10 µM) 2.31%. For the same molecule, the viability, T/C was 2.44% (second compound 0.000949 µM, first compound 0.0316 µM); 2.76% (second compound 0.000949 µM, first compound 0.1 µM); 3.13% (second compound 0.000949 µM, first compound 0.316 µM); 1.08% (second compound 0.000949 µM, first compound 1 µM); 0.81% (second compound 0.000949 µM, first compound 3.16 µM); 0.98% (second compound 0.000949 µM, first compound 10 µM). Also, the viability, T/C reads like this: (second compound 0.003 µM, first compound 0.0316 µM) 0.93%; (second compound 0.003 µM, first compound 0.1 µM) 0.67%; (second compound 0.003 µM, first compound 0.316 µM) 0.53%; (second compound 0.003 µM, first compound 1 µM) 0.63%; (second compound 0.003 µM, first compound 3.16 µM) 0.36%; (second compound 0.003 µM, first compound 10 µM) 0.33%.
As to `Cn1nnc2c(C(N)=O)ncn2c1=O`, the viability, T/C is 95% [middle of 10 runs] (compound 1 µM), 103% [middle of 10 runs] (compound 3.16 µM) and 99.7% [middle of 10 runs] (compound 10 µM). The IC50 (compound alone, run of 11/07/2019) is > 100000 nM and 19100 nM and 92000 nM.
